“And” between values parts separate entries of the source, which are not always exact repeats. Equal values may be shown once.
Experiments:
[1] = biological target: T1, mTOR kinase (Homo sapiens, UniProt P42345); assay: In vitro mTOR kinase enzyme assay (Transcreener ADP2 FI); type: biochemical
T1 construct: purchased Invitrogen
Experimental: The mTOR enzyme assay was used to determine the mTOR kinase activity of compound 3. Enzymatic reaction mixture was prepared as follows: mTOR enzyme (10 μg/mL, Invitrogen), ATP (10 μM), p70S6K peptide (10 μg/mL, SignalChem), and kinase buffer (50 mM HEPES, pH 7.5, 1 mM EGTA, 3 mM MnCl2, 10 mM MgCl2, 2 mM DTT, and 0.01% Tween-20). The reaction was performed in black half-area 96-wells at room temperature for 1 h, then stopped by adding ADP detection buffer (Transcreener ADP^2 FI Assay, BellBrook labs) and incubated at room temperature for 1 h. Compound concentration was 10, 20, 40, 80, and 100 μM. The final DMSO concentration was 1%. PHERAstar microplate reader was used for measuring the fluorescence intensity (excitation 575 nm, emission 620 nm).

[2] = tested on: RPE-1 cells; assay: Time-lapse microscopy (Incucyte) of proliferating RPE-1; type: cell-based, human; details: 0, 10, 50, 80, 100 μM, 72 h
Experimental: (§1) For auto-monitoring of cells, Incucyte SX1 Live-Cell Analysis System (Sartorius, Göttingen, Germany), located in an incubator maintained at 37°C under a 5% CO2 atmosphere and 95% humidity, was utilized. The images (1,408 × 1,040 pixels at 1.24 microns/pixel) were acquired using a 10× objective lens in phase contrast, red fluorescence (excitation: 585 ± 20 nm, emission: 635 [625, 705] nm, acquisition time: 100 ms) channels every 60 min during 72 h. The first image was acquired 30 min after adding compounds. The images were processed to measure cell confluence using Incucyte software (version 2022A). Annexin V – Dy647, Apronex (diluted 1:1,000) was used for apoptotic cell staining.

[3] = tested on: temozolomide (TMZ)-induced senescent U87 cells; assay: Crystal violet and resazurin assays in TMZ-induced senescent U87; type: cell-based, human; details: 0–100 μM, 24 h
Experimental: To obtain ionizing radiation (IR)-induced senescent cells, proliferating RPE-1 cells were exposed to a single dose of X-rays (20 Gy) using Pantak HF160 (Gulmay, Surrey, UK) X-ray instrument equipped with Pantak Seifert HF320 generator, MXR-161 X-ray tube (Comet AG, Flamatt, Switzerland), and an aluminum filter using current 1–10 mA. After irradiation, the cells were cultured for an additional 7 days until the development of the senescent phenotype ([Salovska et al., 2022]). To induce docetaxel-induced senescence (DIS), BJ cells were exposed to 5 nM docetaxel for 7 days, as described previously ([Sapega et al., 2018]). […]
For the crystal violet assay, the cells were washed twice with 150 μL PBS and stained with 30 μL 0.5% (w/v) crystal violet in 20% methanol for 15 mins. […] The absorbance was read at 595 nm using a microplate reader (Envision, PerkinElmer, Waltham, MA, USA). The absorbance of crystal violet in treated cells was expressed as a percentage of absorbance in untreated cells. Each condition was measured at least in triplicate.
(§2) For the resazurin assay, 200 μL of the culture medium of each well was exchanged for 100 μL of resazurin (stock solution 30 mg/mL; Sigma, St. Louis, MO, USA) diluted 10 times in the culture medium, and the cells were incubated at 37°C for 1–3 h. Reading of fluorescence was done using a microplate reader (PerkinElmer, Waltham, MA, USA). […]

[4] = tested on: U87 cells; assay: Time-lapse microscopy with annexin V staining of proliferating U87; type: cell-based, human
Experimental: as §1

[5] = tested on: IR-induced senescent RPE-1 cells; assay: Crystal violet and resazurin assays in IR-induced senescent RPE-1; type: cell-based, human
Experimental: (§3) To obtain ionizing radiation (IR)-induced senescent cells, proliferating RPE-1 cells were exposed to a single dose of X-rays (20 Gy) using Pantak HF160 (Gulmay, Surrey, UK) X-ray instrument equipped with Pantak Seifert HF320 generator, MXR-161 X-ray tube (Comet AG, Flamatt, Switzerland), and an aluminum filter using current 1–10 mA. After irradiation, the cells were cultured for an additional 7 days until the development of the senescent phenotype ([Salovska et al., 2022]). To induce docetaxel-induced senescence (DIS), BJ cells were exposed to 5 nM docetaxel for 7 days, as described previously ([Sapega et al., 2018]). To prepare temozolomide (TMZ)-induced senescence, U87 cells were exposed to 100 μM TMZ for 14 days.
(§4) Twenty-four hours before treatment, cells were plated in 96-well plates at densities of 2,850 cells per well for senescent RPE-1 (IR-RPE-1), 3,350 cells per well for proliferating RPE-1 and senescent BJ (DIS-BJ), and 5,000 cells per well for U373, T98, A172, U87, TMZ-U87, and proliferating BJ cells.
(§5) For the crystal violet assay, the cells were washed twice with 150 μL PBS and stained with 30 μL 0.5% (w/v) crystal violet in 20% methanol for 15 mins. Next, the plates were washed five times with ddH2O and left to dry overnight. Crystal violet was solubilized with 75 μL 0.2% Triton X-100 (Sigma) in PBS for 15 mins. The absorbance was read at 595 nm using a microplate reader (Envision, PerkinElmer, Waltham, MA, USA). The absorbance of crystal violet in treated cells was expressed as a percentage of absorbance in untreated cells. Each condition was measured at least in triplicate.
as §2, with “USA). Absolute values of fluorescence were related to the values of untreated cells. Each condition was measured at least in triplicate.” for “USA).”

[6] = tested on: BJ, RPE-1 and U373 cells; assay: Crystal violet and resazurin proliferation screen in proliferating cells; type: cell-based, human; details: RPE-1, U373, 0, 10, 50, 80, 100 μM, 24 h
Experimental: All cell lines used in the study were obtained from the American Type Culture Collection (ATCC, Manassas, VA, USA). Human telomerase-immortalized retinal pigment epithelial cells RPE-1, glioblastoma U-87 MG, glioblastoma U373MG, glioblastoma T98G, glioblastoma A-172, breast adenocarcinoma MDA-MB-231, prostate carcinoma DU-145, and non-small cell lung cancer NCI-H1299 cell lines were cultured in Dulbecco’s modified Eagle’s medium (DMEM, Thermo Fisher Scientific, Waltham, MA, USA) with high glucose (4.5 g/L). Primary human skin BJ fibroblasts were cultured in Dulbecco’s modified Eagle’s medium (DMEM, Thermo Fisher Scientific, Waltham, MA, USA) with low glucose (1 g/L). Both cell culture media were supplemented with 10% fetal bovine serum (FBS, Gibco/Thermo Fisher Scientific) and non-essential amino acids (NEAA), 100 units/mL of penicillin, and 100 μg/mL of streptomycin (Sigma-Aldrich). Cells were kept at 37°C under a 5% CO2 atmosphere and 95% humidity.
as §4, §5
(§6) For the resazurin assay, 200 μL of the culture medium of each well was exchanged for 100 μL of resazurin (stock solution 30 mg/mL; Sigma, St. Louis, MO, USA) diluted 10 times in the culture medium, and the cells were incubated at 37°C for 1–3 h. Reading of fluorescence was done using a microplate reader (PerkinElmer, Waltham, MA, USA). Absolute values of fluorescence were related to the values of untreated cells. Each condition was measured at least in triplicate.

[7] = tested on: glioblastoma T98, A172 and U87 cells; assay: Crystal violet and resazurin assays in further glioblastoma lines; type: cell-based, human; details: 0–100 μM, 24 h
Experimental: as §4, §5, §6

[8] = tested on: TMZ-U87 cells; assay: Time-lapse microscopy with annexin V of TMZ-induced senescent U87; type: cell-based, human; details: 0–100 μM, 72 h
Experimental: as §3
as §1, with “Annexin V – Dy647, Apronex (diluted 1:1,000) was used for apoptotic cell staining.” left out

[9] = tested on: IR-RPE-1 senescent cells; assay: Time-lapse microscopy of IR-senescent RPE-1; type: cell-based, human; details: 100 μM, 72 h
Experimental: as §3
as §1, with “Annexin V – Dy647, Apronex (diluted 1:1,000) was used for apoptotic cell staining.” left out

Q: `Nc1ccc(C(=O)Nc2cccc(-c3c[nH]c4ncccc34)c2)cc1O` [Compound 3, N-(3-(1H-pyrrolo[2,3-b]pyridin-3-yl)phenyl)-4-amino-3-hydroxybenzamide] was tested. Which IC50 ([1]; ATP 10 μM, p70S6K peptide, 1 h) did it give?
A: ~70 µM and 70 µM

Q: And the “inhibition of mTOR kinase activity” value ([1]; at 100 μM)?
A: complete inhibition

Q: And the “concentration from which mTOR kinase activity is inhibited” value ([1]; tested at 10, 20, 40, 80, 100 μM)?
A: 10 µM

Q: What about the “effect on cell proliferation (cell confluence, time-lapse)” value [2] of the same compound?
A: showed the effect on RPE-1 cell proliferation

Q: And the “effect on the readout of crystal violet and resazurin assays” value [3]?
A: similarly to proliferating U87 cells

Q: And the “cell phenotype in time-lapse microscopy” value ([4]; proliferating U87, 100 μM, 72 h)?
A: rapid loss of cell spreading with a lack of mitotic activity and progressively occurring cell death

Q: What about the “induction of apoptosis (annexin V staining)” value ([4]; time-lapse microscopy 72 h, 0–100 μM, Figure 5G) of the same compound?
A: confirmed

Q: What about the “selectivity for senescent versus proliferating cells” value ([5]; IR-RPE-1 vs proliferating RPE-1, crystal violet and resazurin) of the same compound?
A: non-selective manner

Q: And the “sensitivity of senescent cells (crystal violet and resazurin)” value ([5]; IR-induced senescent RPE-1, 0–100 μM, 24 h)?
A: significantly sensitive

Q: And the “effect on the readout of crystal violet and resazurin assays” value [6]?
A: significant suppressive effect

Q: And the “effect in crystal violet and resazurin assays” value [7]?
A: significantly affected

Q: And the “cell phenotype in time-lapse microscopy, annexin V staining” value [8]?
A: loss of cell adhesion followed by cell death

Q: What about the “kind of effect on senescent cells” value [9] of the same compound?
A: rather senomorphic than senolytic effect

— publication PMC9767416, “Discovery of small molecule mechanistic target of rapamycin inhibitors as anti-aging and anti-cancer therapeutics” (Frontiers in Aging Neuroscience, 2022)
